# What was measured:
# Hepatotoxicity [1] = assay: Literature-mined compound from Fourches et al multi-species drug-induced liver injury (DILI) dataset, effect in non-rodents
# Hepatotoxicity [2] = assay: Literature-mined compound from Fourches et al multi-species drug-induced liver injury (DILI) dataset, effect in rodents; conditions: rodentia
# Hepatotoxicity [3] = assay: Literature-mined compound from Fourches et al multi-species drug-induced liver injury (DILI) dataset, effect in humans; conditions: human
Structure (SMILES),Hepatotoxicity (Hepatotoxicity [1]),Hepatotoxicity (Hepatotoxicity [2]),Hepatotoxicity (Hepatotoxicity [3]),Hepatotoxicity (Hepatotoxicity [1]; Liver),Hepatotoxicity (Hepatotoxicity [2]; Liver),Hepatotoxicity (Hepatotoxicity [3]; Liver)
CCN(CC)C(=O)c1cccc(C)c1 [DIETHYLTOLUAMIDE],no drug-induced liver injury reported,drug-induced liver injury reported,no drug-induced liver injury reported,–,–,–
O=C(O)c1cc(-c2ccc(F)cc2F)ccc1O [DIFLUNISAL],–,–,–,drug-induced liver injury reported,drug-induced liver injury reported,drug-induced liver injury reported
C[C@H]1O[C@@H](O[C@H]2[C@@H](O)C[C@H](O[C@H]3[C@@H](O)C[C@H](O[C@H]4CC[C@@]5(C)[C@H](CC[C@@H]6[C@@H]5CC[C@]5(C)[C@@H](C7=CC(=O)OC7)CC[C@]65O)C4)O[C@@H]3C)O[C@@H]2C)C[C@H](O)[C@@H]1O [DIGITOXIN],no drug-induced liver injury reported,drug-induced liver injury reported,no drug-induced liver injury reported,–,–,–
C[C@H]1O[C@@H](O[C@H]2[C@@H](O)C[C@H](O[C@H]3[C@@H](O)C[C@H](O[C@H]4CC[C@@]5(C)[C@H](CC[C@@H]6[C@@H]5C[C@@H](O)[C@]5(C)[C@@H](C7=CC(=O)OC7)CC[C@]65O)C4)O[C@@H]3C)O[C@@H]2C)C[C@H](O)[C@@H]1O [DIGOXIN],drug-induced liver injury reported,drug-induced liver injury reported,no drug-induced liver injury reported,–,–,–
NNc1nnc(NN)c2ccccc12 [DIHYDRALAZINE],no drug-induced liver injury reported,drug-induced liver injury reported,drug-induced liver injury reported,–,–,–
CN1C[C@H](C(=O)N[C@]2(C)O[C@@]3(O)[C@@H]4CCCN4C(=O)[C@H](Cc4ccccc4)N3C2=O)C[C@@H]2c3cccc4[nH]cc(c34)C[C@H]21 [DIHYDROERGOTAMINE],no drug-induced liver injury reported,drug-induced liver injury reported,drug-induced liver injury reported,–,–,–
COc1ccc([C@@H]2Sc3ccccc3N(CCN(C)C)C(=O)[C@@H]2OC(C)=O)cc1 [DILTIAZEM],drug-induced liver injury reported,drug-induced liver injury reported,drug-induced liver injury reported,–,–,–
C[S+](C)[O-] [DIMETHYL SULFOXIDE],drug-induced liver injury reported,drug-induced liver injury reported,drug-induced liver injury reported,–,–,–
CCCCC[C@H](O)/C=C/[C@H]1[C@H](O)CC(=O)[C@@H]1C/C=C\CCCC(=O)O [DINOPROSTONE],no drug-induced liver injury reported,drug-induced liver injury reported,drug-induced liver injury reported,–,–,–
CCCCC[C@H](O)/C=C/[C@@H]1[C@@H](C/C=C\CCCC(=O)O)[C@@H](O)C[C@H]1O [DINOPROST],drug-induced liver injury reported,drug-induced liver injury reported,drug-induced liver injury reported,–,–,–
COc1ccc(-c2cc(=O)c3c(O)cc(O[C@@H]4O[C@H](CO[C@@H]5O[C@@H](C)[C@H](O)[C@@H](O)[C@H]5O)[C@@H](O)[C@H](O)[C@H]4O)cc3o2)cc1O [DIOSMIN],no drug-induced liver injury reported,drug-induced liver injury reported,no drug-induced liver injury reported,–,–,–
CN(C)CCOC(c1ccccc1)c1ccccc1 [DIPHENHYDRAMINE],–,–,–,no drug-induced liver injury reported,drug-induced liver injury reported,no drug-induced liver injury reported
Cc1c(N(C)CS(=O)(=O)[O-])c(=O)n(-c2ccccc2)n1C.[Na+] [DIPYRONE SODIUM],no drug-induced liver injury reported,drug-induced liver injury reported,drug-induced liver injury reported,–,–,–
C=C/C=C\[C@H](C)[C@H](OC(N)=O)[C@@H](C)[C@H](O)[C@@H](C)C/C(C)=C\[C@H](C)[C@@H](O)[C@@H](C)/C=C\[C@@H](O)C[C@@H]1OC(=O)[C@H](C)[C@@H](O)[C@H]1C [DISERMOLIDE],no drug-induced liver injury reported,no drug-induced liver injury reported,drug-induced liver injury reported,–,–,–
CC(C)N(CCC(C(N)=O)(c1ccccc1)c1ccccn1)C(C)C (configuration not stated) [DISOPYRAMIDE],no drug-induced liver injury reported,no drug-induced liver injury reported,drug-induced liver injury reported,–,–,–
CCN(CC)C(=S)[S][Na] [DITIOCARB SODIUM],no drug-induced liver injury reported,drug-induced liver injury reported,no drug-induced liver injury reported,–,–,–
CC(CCc1ccc(O)cc1)NCCc1ccc(O)c(O)c1 (configuration not stated) [DOBUTAMINE],drug-induced liver injury reported,no drug-induced liver injury reported,drug-induced liver injury reported,–,–,–

Structure (SMILES),Hepatotoxicity (Hepatotoxicity [1]),Hepatotoxicity (Hepatotoxicity [2]),Hepatotoxicity (Hepatotoxicity [3]),Hepatotoxicity (Hepatotoxicity [1]; Liver),Hepatotoxicity (Hepatotoxicity [2]; Liver),Hepatotoxicity (Hepatotoxicity [3]; Liver)
CC(=O)O[C@@]12CO[C@@H]1C[C@H](O)[C@@]1(C)C(=O)[C@H](O)C3=C(C)[C@@H](OC(=O)[C@H](O)[C@@H](NC(=O)OC(C)(C)C)c4ccccc4)C[C@@](O)([C@@H](OC(=O)c4ccccc4)[C@H]21)C3(C)C.O.O.O [DOCETAXEL],no drug-induced liver injury reported,drug-induced liver injury reported,drug-induced liver injury reported,–,–,–
CC/C=C\C/C=C\C/C=C\C/C=C\C/C=C\C/C=C\CCC(=O)O [DOCONEXENT],no drug-induced liver injury reported,drug-induced liver injury reported,drug-induced liver injury reported,–,–,–
NCCc1ccc(O)c(O)c1 [DOPAMINE],–,–,–,drug-induced liver injury reported,drug-induced liver injury reported,drug-induced liver injury reported
CN(C)CC/C=C1\c2ccccc2CSc2ccccc21 [DOTHIEPIN],no drug-induced liver injury reported,no drug-induced liver injury reported,drug-induced liver injury reported,–,–,–
CN(C)CCC=C1c2ccccc2COc2ccccc21 [DOXEPIN],no drug-induced liver injury reported,no drug-induced liver injury reported,drug-induced liver injury reported,–,–,–
C[C@H]1O[C@@H](n2cc(F)c(=O)[nH]c2=O)[C@H](O)[C@@H]1O [DOXIFLURIDINE],no drug-induced liver injury reported,drug-induced liver injury reported,drug-induced liver injury reported,–,–,–
COc1cccc2c1C(=O)c1c(O)c3c(c(O)c1C2=O)C[C@@](O)(C(=O)CO)C[C@@H]3O[C@H]1C[C@H](N)[C@H](O)[C@H](C)O1.Cl [DOXORUBICIN HYDROCHLORIDE],no drug-induced liver injury reported,no drug-induced liver injury reported,drug-induced liver injury reported,–,–,–
COc1cccc2c1C(=O)c1c(O)c3c(c(O)c1C2=O)C[C@@](O)(C(=O)CO)C[C@@H]3O[C@H]1C[C@H](N)[C@H](O)[C@H](C)O1 [DOXORUBICIN],drug-induced liver injury reported,drug-induced liver injury reported,drug-induced liver injury reported,–,–,–
C[C@H]1c2cccc(O)c2C(=O)C2=C(O)[C@]3(O)C(=O)C(C(N)=O)=C(O)[C@@H](N(C)C)[C@@H]3[C@@H](O)[C@@H]21.O [DOXYCYCLINE],drug-induced liver injury reported,drug-induced liver injury reported,drug-induced liver injury reported,–,–,–
CC/C(=C(/c1ccc(OCCN(C)C)cc1)c1cccc(O)c1)c1ccccc1 [DROLOXIFENE],no drug-induced liver injury reported,drug-induced liver injury reported,no drug-induced liver injury reported,–,–,–
CCCCCc1cc(O)c2c(c1)OC(C)(C)[C@@H]1CCC(C)=C[C@@H]21 [DRONABINOL],no drug-induced liver injury reported,drug-induced liver injury reported,drug-induced liver injury reported,–,–,–
CNCC[C@H](Oc1cccc2ccccc12)c1cccs1 [DULOXETINE],–,–,–,no drug-induced liver injury reported,no drug-induced liver injury reported,drug-induced liver injury reported
CC(=O)[C@H]1CC[C@H]2[C@@H]3C=CC4=CC(=O)CC[C@@]4(C)[C@@H]3CC[C@]12C [DYDROGESTERONE],no drug-induced liver injury reported,drug-induced liver injury reported,drug-induced liver injury reported,–,–,–
Clc1ccc(COC(Cn2ccnc2)c2ccc(Cl)cc2Cl)cc1 (configuration not stated) [ECONAZOLE],no drug-induced liver injury reported,drug-induced liver injury reported,no drug-induced liver injury reported,–,–,–
O=C1Nc2ccc(Cl)cc2[C@@](C#CC2CC2)(C(F)(F)F)O1 [EFAVIRENZ],no drug-induced liver injury reported,drug-induced liver injury reported,drug-induced liver injury reported,–,–,–
NCCCC(N)(C(=O)O)C(F)F (configuration not stated) [EFLORNITHINE],no drug-induced liver injury reported,drug-induced liver injury reported,no drug-induced liver injury reported,–,–,–
CCCCCCCCCCCCS[C@H](C(=O)Nc1cc(C)c(O)c(C)c1C)c1ccccc1 [EFLUCIMIBE],drug-induced liver injury reported,no drug-induced liver injury reported,no drug-induced liver injury reported,–,–,–

# Source: ChEMBL document CHEMBL1697731, “Cheminformatics analysis of assertions mined from literature that describe drug-induced liver injury in different species” (Chem Res Toxicol, 2010)
